For seven compounds, TGI results are on record in PubChem BioAssay (NCI).

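Step 1: Grow cells in 96-well plates. Step 2: Expose to compound for 48 hours at 5 concentrations. Step 3: Interpolate endpoints linearly; if unreached, use highest concentration. TGI: concentration producing complete growth inhibition.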

Among the test systems are SK-MEL-2 melanoma; OVCAR-5 ovarian; MDA-N; IGROV1 ovarian; UACC-257 melanoma; SK-MEL-5 melanoma; K-562 leukemia; HOP-62 NSCLC; SK-OV-3 ovarian; KM12 colon; DU-145 prostate; PC-3 prostate; CCRF-CEM leukemia; M14 melanoma; HCT-116 colon; CAKI-1 renal; MALME-3M melanoma; SF-539 CNS; NCI-H226 lung.
Holding throughout (test): NCI-60 cell line screen, 48 h

As for `Cc1cc(C)nc(SC(C)C(=O)N/N=C/c2ccc(OCc3ccccc3)cc2)n1` (stereo not drawn), the TGI in the assay on SK-MEL-2 melanoma is 46.1 µM; with OVCAR-5 ovarian, more than 100 µM; with MDA-N, more than 100 µM; in the assay on IGROV1 ovarian, more than 100 µM; with UACC-257 melanoma it was 37.9 µM; in the assay on SK-MEL-5 melanoma, 20.5 µM. Further, the TGI with K-562 leukemia was more than 100 µM; with HOP-62 NSCLC, more than 100 µM; with SK-OV-3 ovarian it was more than 100 µM; in the assay on KM12 colon, more than 100 µM; in the assay on DU-145 prostate, more than 100 µM; in the assay with PC-3 prostate, 58.7 µM. Moreover, the TGI in the assay on CCRF-CEM leukemia, in the assay with M14 melanoma, with HCT-116 colon, in the assay with CAKI-1 renal, with MALME-3M melanoma and in the assay on SF-539 CNS was more than 100 µM each time. Moreover, the TGI in the assay with NCI-H226 lung was determined as 93.5 µM.

As for `CC(=O)N(O)[C@@H]1CC[C@H](n2cnc3c(N)ncnc32)C1`, the TGI in the assay on SK-MEL-2 melanoma, in the assay with OVCAR-5 ovarian, in the assay on MDA-N, with IGROV1 ovarian, with UACC-257 melanoma and in the assay on SK-MEL-5 melanoma was more than 100 µM throughout. Further, the TGI with K-562 leukemia, in the assay with HOP-62 NSCLC, in the assay with SK-OV-3 ovarian, in the assay with KM12 colon, in the assay with DU-145 prostate and with PC-3 prostate was more than 100 µM in each case. Further, the TGI in the assay with CCRF-CEM leukemia, in the assay with M14 melanoma, with HCT-116 colon, with CAKI-1 renal, in the assay with MALME-3M melanoma and with SF-539 CNS was more than 100 µM each time. Also, the TGI in the assay on NCI-H226 lung was more than 100 µM.

Consider `Cc1cc(Cc2c(F)c(F)c(C(c3cc(C)no3)c3c(F)c(F)c(F)c(F)c3F)c(F)c2F)on1` (stereo not drawn), for which the TGI with SK-MEL-2 melanoma was more than 100 µM; in the assay with OVCAR-5 ovarian it was more than 100 µM; in the assay on MDA-N, 15.1 µM; with IGROV1 ovarian, more than 100 µM; in the assay on UACC-257 melanoma, more than 100 µM; in the assay on SK-MEL-5 melanoma, more than 100 µM. The TGI in the assay on K-562 leukemia, in the assay with HOP-62 NSCLC, with SK-OV-3 ovarian, in the assay on KM12 colon, in the assay with DU-145 prostate and in the assay with PC-3 prostate was more than 100 µM in each case. For the same compound, the TGI with CCRF-CEM leukemia, in the assay with M14 melanoma, with HCT-116 colon, in the assay on CAKI-1 renal, in the assay on MALME-3M melanoma and in the assay on SF-539 CNS was more than 100 µM in each case. Further, the TGI with NCI-H226 lung was more than 100 µM.

Turning to `CCOC(=O)C1OC(C2(C)OC3(OC4(C=CC3O)OC(C(C)C(=O)C(C)C(O)C(C)CC(C)c3c(Cl)cc(C)c(O)c3C(=O)O)C(C)CC4C)C(C)C2OC)CC1O` (stereo not drawn), the TGI in the assay with SK-MEL-2 melanoma turned out to be 1.13 µM; in the assay with OVCAR-5 ovarian, 21 µM; with MDA-N, 4.76 µM; with IGROV1 ovarian, 16.5 µM; in the assay on UACC-257 melanoma, 8.54 µM; in the assay on SK-MEL-5 melanoma, 5.59 µM. The TGI in the assay with K-562 leukemia was 5.16 µM; in the assay on HOP-62 NSCLC, 0.483 µM; in the assay with SK-OV-3 ovarian, 3.26 µM; in the assay on KM12 colon it was 6.41 µM; with DU-145 prostate, 5.93 µM; with PC-3 prostate, 17.3 µM. Moreover, the TGI was determined as 1.04 µM in the assay with CCRF-CEM leukemia; 6.38 µM in the assay on M14 melanoma; 3.75 µM in the assay with HCT-116 colon; 10.4 µM with CAKI-1 renal; 1.81 µM in the assay on MALME-3M melanoma; 7.51 µM in the assay on SF-539 CNS. This compound also came in with a TGI in the assay with NCI-H226 lung of 1.84 µM.

Turning to `COc1ccc2oc(OC)c(CC=C(C)C)c(=O)c2c1C`, the TGI with SK-MEL-2 melanoma, in the assay with OVCAR-5 ovarian, in the assay on MDA-N, in the assay on IGROV1 ovarian, with UACC-257 melanoma and in the assay on SK-MEL-5 melanoma was more than 100 µM throughout. Besides, the TGI with K-562 leukemia, in the assay with HOP-62 NSCLC, in the assay with SK-OV-3 ovarian, in the assay with KM12 colon, in the assay with DU-145 prostate and in the assay on PC-3 prostate was more than 100 µM in each case. Also, the TGI with CCRF-CEM leukemia, in the assay with M14 melanoma, with HCT-116 colon, with CAKI-1 renal, with MALME-3M melanoma and in the assay with SF-539 CNS was more than 100 µM each time. This compound returned a TGI in the assay with NCI-H226 lung of more than 100 µM.

Consider `Nc1nc(Cl)cc(NCCC2(CO)CCC2)n1`, for which the TGI with SK-MEL-2 melanoma, with OVCAR-5 ovarian, in the assay on MDA-N, with IGROV1 ovarian, in the assay with UACC-257 melanoma and in the assay with SK-MEL-5 melanoma was more than 100 µM each time. Further, the TGI in the assay with K-562 leukemia, in the assay on HOP-62 NSCLC, with SK-OV-3 ovarian, in the assay on KM12 colon, with DU-145 prostate and in the assay on PC-3 prostate was more than 100 µM throughout. For the same compound, the TGI in the assay on CCRF-CEM leukemia, with M14 melanoma, in the assay on HCT-116 colon, in the assay with CAKI-1 renal, in the assay on MALME-3M melanoma and with SF-539 CNS was more than 100 µM in each case. For the same compound, the TGI in the assay with NCI-H226 lung was more than 100 µM.

Regarding `COC(=O)C1CCC(=O)N1C(c1ccc(OC)cc1)c1ccc(OC)cc1` (stereo not drawn), the TGI in the assay with SK-MEL-2 melanoma, in the assay on OVCAR-5 ovarian, in the assay with MDA-N, in the assay on IGROV1 ovarian, with UACC-257 melanoma and in the assay on SK-MEL-5 melanoma was more than 100 µM in each case. Besides, the TGI in the assay on K-562 leukemia, in the assay with HOP-62 NSCLC, with SK-OV-3 ovarian, in the assay with KM12 colon, in the assay on DU-145 prostate and with PC-3 prostate was more than 100 µM throughout. Besides, the TGI with CCRF-CEM leukemia, in the assay on M14 melanoma, in the assay with HCT-116 colon, in the assay with CAKI-1 renal, with MALME-3M melanoma and in the assay on SF-539 CNS was more than 100 µM throughout. For the same compound, the TGI with NCI-H226 lung was more than 100 µM.
